Test system: FHIT
Assay: Relative FHIT mRNA expression in PAECs (qPCR)
Type: cell-based, human
Conditions: PAEC, 24 hours, low doses (5-15 uM), FIG. 14
Protocol: Human PAEC (Promocell) or human PASMC (Promocell) were grown as monolayers in gelatin-coated dishes in a commercial EC (Promocell) or SMC (Promocell) media, respectively. Cells were passaged at 1:3 ratios and used for experiments from passages 3-8. Transformed lymphocytes (i.e., lymphoblasts) were cultured in RPMI 1640 with 10-15% FBS.
FHIT expression was modulated by RNAi in PA endothelial cells (PAEC). A pool of 4 siRNAs for BMPR2, FHIT, LCK or a non-targeting control pool (Dharmacon) were transfected into PAECs using the RNAi Max kit (Invitrogen) for 48 hours. mRNA knockdown efficiency was determined by qPCR.
For mRNA, total RNA was extracted from whole lung tissue using the RNAeasy Plus Kit (Qiagen) and reverse transcribed into cDNA using random primers with the Taqman cDNA reverse transcription Kit (Applied Biosciences) according to the manufacturer's instructions. For miR, total miR was isolated from whole lung tissue using the Taqman miRNA ABC purification Kit (Applied Biosciences) and was reverse transcribed using specific primers and the Taqman microRNA reverse transcription kit (Applied Biosciences). mRNA and miR expression levels were quantified using Taqman primer/probe sets for the target and normalized to a housekeeping control (mRNA: GAPDH; miR: RNU48). […]

Cn1cc(C2=C(c3cn(C4CCN(Cc5ccccn5)CC4)c4ccccc34)C(=O)NC2=O)c2ccccc21 [Enzastaurin, 3-(1-methyl-1H-indol-3-yl)-4-[1-[1-(pyridin-2-ylmethyl)piperidin-4-yl]-1H-indol-3-yl]-1H-pyrrole-2,5-dione]
FHIT expression at low doses in vitro: increased

— patent US11413280B2 (The Board of Trustees of the Leland Stanford Junior …, priority 2017, dated 2022)
